According to patent US20160151458A1, “Use Of Unacylated Ghrelin, Fragments And Analogs Thereof As Antioxidant” (ALIZE PHARMA SAS, priority 2013, published 2016):

Assays:
[1] = test system: unilateral hind limb ischemia in C57BL/6J mice (ischemic gastrocnemius muscle); assay: Murine hind-limb ischemia model; type: in vivo; conditions: for Pax-7/MyoD+ cells in ischemic muscles: FIG. 2A
Experimental: (§1) Male C57BL/6J mice (Charles River Lab., Wilmington, Mass., USA) were anesthetized and unilateral hind limb ischemia was induced as described^42. The normo-perfused contralateral limb of each mouse was used as an internal control. After hind-limb ischemia, animals (18 mice per group) were treated by intra-peritoneal injection daily from 0 to day 21 with either saline, AG (100 μg/kg) or UAG (100 μg/kg). In selected experiments, mice received intramuscular injections of pre-miR oligonucleotides (5 mice/group). To induce toxic damage, 100 μl of 1% barium chloride (BaCl2, Sigma Aldrich) was injected unilaterally into the hind limb (9 mice). Mice were treated according to European Guidelines and policies as approved by the University of Turin Ethical Committee.
Semiquantitative estimation (by repeated measures analyzed with ANOVA and Newman-Keuls Multiple Comparison test) of foot damage was performed serially using the following classification: 3=dragging of foot (foot necrosis), 2=no dragging but no plantar flexion (foot damage), 1=plantar flexion but no toe flexion (toe damage), and 0=flexing the toes to resist gentle traction on the tail (no damage)^43.
(§2) Gastrocnemius muscle sections from ischemic or normo-perfused limbs were stained with hematoxylin and eosin for histological analysis. The proportion of fibers with central nuclei (regenerating fibers) was measured by MetaMorph software (Life Sciences Research Imaging Systems) in the injured area and the cross-sectional areas of the fibers in the injured and non-injured areas. For IF analysis, muscle sections were processed as described previously^44. The number of cells expressing the indicated markers or CD31 positive vessels was evaluated as previously described^34.
(§3) Intracellular ROS production was evaluated using DCF-DA (5-(and-6)-carboxy-2′,7′-dichlorofluorescein diacetate, […] final concentration) (Molecular Probe, Invitrogen) assay as previously described^23. The formation of TBARS was determined in muscles using the OXI-TEK kit (ZeptoMetrix Corp.) and a luminescence spectrometer (Bio-Rad Laboratories, Hercules, Calif.) with excitation set at 530 nm, emission at 550 nm to measure in-vivo oxidative stress levels^33.

[2] = test system: satellite cells (SCs) from ischemic muscles; assay: SCs recovered from ischemic muscles of treated mice (ex vivo analysis); type: in vivo, C57BL/6J mice
Experimental: as §1
(§4) SCs were isolated from gastrocnemius muscles of C57BL/6J wild type mice subjected to ischemia or C57BL/6J mice lacking the GHSR1a and ghrelin genes (10 mice, kind gift of Professor M. Tschöp)^39. To obtain SCs, muscle samples were subjected to enzymatic digestion as described^45. In selected experiments, SCs were recovered from normo-perfused muscles and subjected to in-vitro ischemia in presence of saline, AG (1 μmol/L) or UAG (1 μmol/L). In-vitro ischemia was induced by incubating cells in DMEM+2% FCS at 5% CO2/95% N2 humidified atmosphere, yielding 1% O2 concentrations for 24 h^18. The in-vitro ischemia was also performed in the presence of SB202190 (1 μmol/L).
(§5) Cells were lysed and protein detection was obtained as previously described^47. Cells were lysed (50 mmol/L Tris HCl [pH 8.3], 1% Triton X-100, 10 mmol/L PMSF, 100 U/ml aprotinin, 10 μmol/L leupeptin) and protein concentrations were obtained as previously described^47. […] Densitometric analysis was used to calculate the differences in the fold induction of protein levels and normalized to tubulin, a actin or p38MAPK content. Values are reported as relative amount
as §3
(§6) Total RNA was isolated using TRIzol reagent (Invitrogen) from SCs recovered from muscles of treated animals or from SCs subjected to in-vitro ischemia. miR-221/222 expression was evaluated by qRT-PCR as previously described^48. Loss-of-function experiments were performed in SCs transfected for 48 h with anti-miRNA negative control, anti-miR-221/222 antagonists (Applied Biosystem, Foxter Cyto CA, USA), according to the manufacturer's instructions^48.

[3] = test system: BaCl2-injected gastrocnemius muscles of C57BL/6J mice; assay: Toxic muscle damage induced by 1% barium chloride (BaCl2); type: in vivo; conditions: 1% BaCl2; FIG. 3E
Experimental: as §1, §2

primary SCs = assay: In-vitro ischemia of primary SCs from normo-perfused muscles; type: cell-based, C57BL/6J mice; conditions: 1 μmol/L, 1% O2 24 h
Experimental: as §4
(§7) SC cell-cycle progression was evaluated by evaluating the percentage of PCNA-positive cells or by FACS analysis as previously described^46. The percentage of cells in each cell cycle phase was determined by ModFit LT software (Verity Software House. Inc, topsham, ME, USA). Celss proliferation was also assayed by evaluating the percentage of PCNA-positive cells by FACS analysis.
as §5, §3, §6

[4] = test system: SCs transfected with SOD-2 siRNA; assay: In-vitro ischemia of SCs silenced for SOD-2 by siRNA; type: cell-based, C57BL/6J mice
Experimental: as §4, §7, §5, §3, §6
To obtain SOD-2 inactivation, SCs were transiently transfected with siRNA for SOD-2 or with duplex siRNAs (Qiagen, Valencia, Calif., USA) as previously described^44. Transfection was performed according to the manufacturer's instructions. Whole cell extracts were processed 48 h after transfection. Cell viability was evaluated at the end of each experiment.

SCs from double KO mice = assay: In-vitro ischemia of SCs from double KO mice lacking the GHSR1a and ghrelin genes; type: cell-based, C57BL/6J mice lacking the GHSR1a and ghrelin genes
Experimental: as §4, §7, §5, §3

[5] = test system: SCs transfected with anti-miR-221/222; assay: Loss-of-function: SCs transfected with anti-miR-221/222 antago-miRs; type: cell-based, mice; conditions: anti-miR-221/222 transfected SCs; data not shown
Experimental: as §6

[6] = test system: C2C12 mouse muscular cell line; assay: ROS production (DCF-DA) in C2C12 cells under oxidative stress; type: cell-based; conditions: 1 μmol/L; stress by hypoxia (1% O2), AGEs, hyperglycemia (25 mM) or H2O2; FIG. 8
Experimental: Kinetic analysis of ROS production was evaluated by using DCF-DA (5-(and-6)-carboxy-2′,7′-dichlorofluorescein diacetate, 0.5 μmol/L final concentration) (Molecular Probe, Invitrogen) assay. C2C12 cells were cultured with 400 μg/ml Advanced Glycated End-product (AGE) or 25 mM glucose (high glucose HG) for 48 h, H2O2 (100 μM) for 2 h. In parallel experiments C2C12 cells were subjected to hypoxia (DMEM+2% FCS in a 5% CO2-95% N2 humidified atmosphere, yielding to 1% O2 concentrations for 24 h). UAG (1 μmol/L) AZP 531 (1 μmol/L) or AZP-502 (1 μmol/L) was added where indicated.

GHSR-1a = GHSR-1a (Homo sapiens, UniProt Q92847); conditions: at physiological concentrations; cited from earlier work
healthy volunteers = conditions: administered concomitantly with ghrelin; cited from earlier work

GHSR-1a, sequence (Q92847 whole entry): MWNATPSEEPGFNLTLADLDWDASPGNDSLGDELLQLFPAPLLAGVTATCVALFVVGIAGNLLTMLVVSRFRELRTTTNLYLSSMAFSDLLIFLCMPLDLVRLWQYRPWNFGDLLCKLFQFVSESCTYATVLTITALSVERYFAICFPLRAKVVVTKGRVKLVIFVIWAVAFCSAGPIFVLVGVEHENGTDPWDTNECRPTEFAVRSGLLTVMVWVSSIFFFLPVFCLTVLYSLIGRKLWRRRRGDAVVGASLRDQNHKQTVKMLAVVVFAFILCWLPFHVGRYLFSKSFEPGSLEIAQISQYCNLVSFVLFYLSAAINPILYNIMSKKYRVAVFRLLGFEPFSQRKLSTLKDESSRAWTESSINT

Substance: Gly-Ser-Ser-Phe-Leu-Ser-Pro-Glu-His-Gln-Arg-Val-Gln-Gln-Arg-Lys-Glu-Ser-Lys-Lys-Pro-Pro-Ala-Lys-Leu-Gln-Pro-Arg (GSSFLSPEHQRVQQRKESKKPPAKLQPR; listed as Homo sapiens) [UAG]
- protection against ischemia-induced damage (overall in vivo effect) ([1]; 100 μg/kg i.p. daily): protect against ischemia-induced damage
- foot damage (functional score) ([1]; 100 μg/kg i.p. daily from day 0, FIG. 1A): damage was significantly higher in saline- and AG-treated groups than in the UAG-treated group
- capillary density, ischemic vs contralateral control muscles of the same animals ([1]; 100 μg/kg i.p. daily, FIG. 1B): no such differences were observed
- number of functional vessels in ischemic muscles ([1]; 100 μg/kg i.p. daily, FIG. 1B): larger number of functional vessels
- CD68-positive inflammatory cells ([1]; 100 μg/kg i.p. daily, FIG. 1E): reduced number of CD68-positive inflammatory cells
- regenerating myofibers in gastrocnemius muscles ([1]; 100 μg/kg i.p. daily, FIGS. 1C, 1D): increased number of regenerating myofibers
- myogenin-positive cells in ischemic muscles ([1]; FIGS. 2E, 2F): increased number of myogenin-positive cells
- Pax-7/MyoD+ cells in ischemic muscles ([1]; day 7): increased number of Pax-7/MyoD+ cells
- Pax-7/MyoD+ cells in ischemic muscles ([1]; day 21): scattered Pax-7/MyoD+ cells were still present
- SOD-2/Pax-7+ cells in ischemic muscle ([1]; double immunostaining, day 7, FIG. 3D): increased number of SOD-2/Pax-7+ cells
- expression of miR-221 and miR-222 in SCs (qRT-PCR) ([2]; SCs from muscles of treated mice vs controls, FIG. 6A): significantly increased
- ROS production in SCs (DCF-DA) ([2]; SCs from treated mice, FIG. 3B): ROS production was lower
- SOD-2 protein expression in SCs ([2]; SCs from treated mice, Western blot, FIG. 3C): SOD-2 protein expression higher
- phospho(p)-p38/MAPK protein level in SCs ([2]; Western blot, FIG. 2C): found to be higher
- number of isolated Pax-7/MyoD/Myf5+ SCs ([2]; ex vivo, FIGS. 2B-2D): significantly increased number of Pax-7/MyoD/Myf5+SCs
- regeneration of skeletal muscle after ROS-independent toxic damage [3]: regeneration of skeletal muscle was no longer observed
- PCNA expression (primary SCs; FACS, FIG. 4D): increased PCNA expression
- number of cells in S phase (primary SCs; FACS, FIG. 4E): increased
- pp38/MAPK level (primary SCs; FIG. 4C): increased levels of pp38/MAPK
- ROS production (DCF-DA) (primary SCs; FIG. 4F): ROS production was decreased
- SOD-2 expression (primary SCs; FIG. 4G): SOD-2 expression increased
- expression of Pax-7, MyoD and myogenin (primary SCs; FIGS. 4A, 4B): only UAG challenge induced expression
- UAG-induced miR-221/222 expression ([4]; SOD-2 knock-down, FIG. 7B): SOD-2 knock-down prevents UAG-induced miR-221/222 expression
- protection against ROS generation ([4]; SOD-2 silenced, FIG. 5B): did not protect SCs against ROS generation
- cell-cycle progression ([4]; SOD-2 silenced, FIG. 5C): the cells did not undergo cell-cycle progression
- p38/MAPK phosphorylation ([4]; SOD-2 silenced, FIG. 5D): did not induce p38/MAPK phosphorylation
- SC cell-cycle progression (SCs from double KO mice; FIG. 5G): only UAG promoted SC cell-cycle progression
- SOD-2 expression (SCs from double KO mice; FIG. 5I): induced SOD-2 expression
- protection from ROS generation (SCs from double KO mice; FIG. 5J): protected SCs from ROS generation
- p-p38/MAPK, Pax-7, MyoD, Myf5 and myogenin expression (SCs from double KO mice; FIGS. 5H, 5I): induced p-p38/MAPK, Pax-7, MyoD, Myf5 and myogenin expression
- cell-cycle entry and expression of SOD-2, Pax-7, MyoD, myogenin [5]: no longer had any effect
- p-p38/MAPK levels [5]: p-p38/MAPK levels were reduced
- protection against oxidative stress (ROS production) [6]: have a protective effect on C2C12 cells against oxidative stress
- binding to GHSR-1a (GHSR-1a): fails to bind
- effect on the hyperglycemic effects of ghrelin (healthy volunteers): prevent the hyperglycemic effects of ghrelin
